According to patent US20240287037A1, “CYCLOALKYL COMPOUNDS AND PHARMACEUTICAL COMPOSITIONS THAT MODULATE IKZF2” (Plexium, Inc., priority 2021, published 2024):
Where two headings read alike, the source gives them in different places.

How the values were obtained:
GSPT1 = GSPT1 (Homo sapiens (Human), UniProt P15170+Q96SW2); assay: GSPT1 reporter degradation assay (HEK293 hGSPT1 HiBiT-tagged cells); format: cell-based; settings: 24 hour incubation
Procedure: HEK293_hGSPT1_HiBiT-tagged cells were generated using CRISPR-Cas12a technology. Briefly, ˜400,000 HEK293 cells were transiently co-transfected with precomplexed ribonuclear proteins (RNPs) consisting of […] of crRNA (IDT), […] of Cas12a protein (IDT), 3 μg of ssODN donor (IDT; AltRTM modifications), 78 pmol of electroporation enhancer (IDT), and 200 ng of pMaxGFP (Lonza). The transfection was performed via nucleofection (Lonza, 4D-Nucleofector X-unit) using solution P3 and program CM-130 in a (20 μL) cuvette. Five days post-nucleofection, cells were single-cell-sorted for GFP+ (transfected) cells by FACs in 96-well plates and clonally selected. Clones were screened and verified for the desired modification via targeted deep sequencing using gene-specific primers with partial Illumina adapter overhangs as previously described. In brief, clonal cell pellets were harvested, lysed, and used to generate gene-specific amplicons with partial Illumina adapters in PCR #1. Amplicons were indexed in PCR #2 and pooled with other targeted amplicons for other loci to create sequence diversity. Additionally, 10% PhiX sequencing control V3 (Illumina) was added to the pooled amplicon library prior to running the sample on a Miseq Sequencer System (Illumina) to generate paired 2×250 bp reads. Samples were demultiplexed using the index sequences, fastq files were generated, and NGS analysis was performed using CRIS.py.
The GSTP1 degradation assay was carried out by harvesting the HEK 293T reporter cell lines and resuspending the cells in media formulated for reduced background fluorescence (FluoroBrite; Thermo Fisher). The respective cell lines were seeded at a density of 8,000 cells/well into white-opaque 384-well optical grade assay tissue culture plates (Greiner 781080-20). The cells were incubated overnight at 37° C. to allow for attachment to the assay plate. Dilutions of the compounds were prepared in DMSO from 10 mM compound stocks. […] Plates were centrifuged at 320×g for 2 minutes at room temperature, and subsequently incubated at 37° C.
After 24 hour incubation with the compounds, the plates were allowed to cool to room temperature for 10 minutes. 30 μL of HiBiT lytic buffer+1:50 HiBiT substrate Solution were added to each well. Plates were centrifuged at 320×g for 2 minutes at room temperature and then incubated with shaking at room temperature for 10 minutes covered with foil. Plates were read on a CLARIOstar microplate reader (BMG LabTech), measuring at 450 nm (donor emission) and 610 nm or 630 nm (acceptor emission). The DC50 values were determined by regression to best fit four-parameter logistic curves using GraphPad Prism.

IKZF3 (Aiolos) = IKZF3 (Aiolos) (Homo sapiens (Human), UniProt Q96SW2+Q9UKT9); assay: IKZF3 reporter degradation assay (HEK 293T IKZF3-mNeonGreen reporter cell line); format: cell-based; settings: HEK 293T reporter cells, 24 hour incubation
IKZF3 (Aiolos), sequence (Q9UKT9 whole entry, the tested form may be a part): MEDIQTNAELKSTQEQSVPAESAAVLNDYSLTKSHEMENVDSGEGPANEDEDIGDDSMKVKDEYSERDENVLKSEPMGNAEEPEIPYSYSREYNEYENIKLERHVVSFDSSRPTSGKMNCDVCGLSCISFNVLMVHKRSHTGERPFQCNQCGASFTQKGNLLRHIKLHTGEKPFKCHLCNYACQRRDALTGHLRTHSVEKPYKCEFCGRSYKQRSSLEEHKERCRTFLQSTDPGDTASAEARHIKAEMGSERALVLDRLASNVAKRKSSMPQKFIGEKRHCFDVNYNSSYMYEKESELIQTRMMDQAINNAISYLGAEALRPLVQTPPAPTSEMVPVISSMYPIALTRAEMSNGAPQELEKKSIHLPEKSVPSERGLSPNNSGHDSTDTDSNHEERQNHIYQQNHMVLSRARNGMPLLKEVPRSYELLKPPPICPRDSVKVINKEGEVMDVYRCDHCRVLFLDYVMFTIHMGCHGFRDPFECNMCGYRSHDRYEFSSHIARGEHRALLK
IKZF3 (Aiolos), sequence (Q96SW2 whole entry, the tested form may be a part): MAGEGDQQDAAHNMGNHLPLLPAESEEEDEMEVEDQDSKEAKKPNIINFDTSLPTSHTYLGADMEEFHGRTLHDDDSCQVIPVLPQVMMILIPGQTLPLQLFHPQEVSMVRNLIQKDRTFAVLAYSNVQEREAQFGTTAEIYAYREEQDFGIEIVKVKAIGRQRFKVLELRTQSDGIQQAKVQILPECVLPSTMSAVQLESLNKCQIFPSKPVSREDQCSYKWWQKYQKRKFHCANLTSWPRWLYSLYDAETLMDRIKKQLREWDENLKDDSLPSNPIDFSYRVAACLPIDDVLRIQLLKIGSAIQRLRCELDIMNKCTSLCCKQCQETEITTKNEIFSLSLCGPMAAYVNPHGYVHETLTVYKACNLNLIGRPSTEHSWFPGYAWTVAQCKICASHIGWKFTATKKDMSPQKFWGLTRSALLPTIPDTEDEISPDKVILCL
IKZF3 (Aiolos), sequence (Q16531 whole entry partner, the tested form may be a part): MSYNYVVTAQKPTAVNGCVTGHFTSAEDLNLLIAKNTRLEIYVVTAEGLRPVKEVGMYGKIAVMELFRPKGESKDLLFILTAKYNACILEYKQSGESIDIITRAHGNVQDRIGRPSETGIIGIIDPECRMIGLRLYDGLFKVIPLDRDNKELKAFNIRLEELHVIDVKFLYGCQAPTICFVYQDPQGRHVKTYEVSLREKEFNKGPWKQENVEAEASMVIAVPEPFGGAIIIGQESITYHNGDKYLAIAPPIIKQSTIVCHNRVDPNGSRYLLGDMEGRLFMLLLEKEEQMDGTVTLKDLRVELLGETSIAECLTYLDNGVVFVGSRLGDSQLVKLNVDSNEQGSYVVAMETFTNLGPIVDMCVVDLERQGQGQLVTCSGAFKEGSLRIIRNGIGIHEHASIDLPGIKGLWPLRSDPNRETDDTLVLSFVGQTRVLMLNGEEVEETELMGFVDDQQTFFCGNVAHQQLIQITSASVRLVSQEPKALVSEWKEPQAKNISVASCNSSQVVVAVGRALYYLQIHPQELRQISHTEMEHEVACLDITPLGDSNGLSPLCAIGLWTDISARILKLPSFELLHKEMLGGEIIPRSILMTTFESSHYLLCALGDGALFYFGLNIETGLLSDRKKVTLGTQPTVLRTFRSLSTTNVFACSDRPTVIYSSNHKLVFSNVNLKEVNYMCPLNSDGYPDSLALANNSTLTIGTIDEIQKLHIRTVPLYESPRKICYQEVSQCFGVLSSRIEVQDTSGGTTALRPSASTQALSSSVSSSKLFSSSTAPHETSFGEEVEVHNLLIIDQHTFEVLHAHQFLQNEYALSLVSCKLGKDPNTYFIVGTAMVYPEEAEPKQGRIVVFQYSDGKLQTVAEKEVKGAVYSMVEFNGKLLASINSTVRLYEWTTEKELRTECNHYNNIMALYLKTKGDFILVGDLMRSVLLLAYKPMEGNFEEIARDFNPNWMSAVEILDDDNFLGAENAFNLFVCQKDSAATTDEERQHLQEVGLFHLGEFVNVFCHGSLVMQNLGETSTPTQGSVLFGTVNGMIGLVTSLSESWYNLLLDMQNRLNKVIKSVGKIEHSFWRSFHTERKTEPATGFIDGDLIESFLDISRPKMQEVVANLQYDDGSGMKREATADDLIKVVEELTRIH
From the text: (§1) Polycistronic plasmids were constructed for the mammalian expression of fluorescent reporter fusions of human transcription factors IKZF1 (Ikaros), IKZF2 (Helios), and IKZF3 (Aiolos). The respective protein sequences had their C-terminal end joined to a GGGGS linker repeated three times followed by mNeonGreen, P2A sequence, and mScarlet. The DNA sequences of the open reading frames are as follows:
(§2) IKZF1, IKZF2, and IKZF3 constructs were cloned into the UCOE Hygromycin expression vectors (Millipore Sigma). Reporter constructs were transfected using cationic lipid reagents into adherent HEK 293T cells and stable integrants were selected by treatment with 200 μg/mL hygromycin B. Clonal populations were obtained from the population of stable integrants either by limiting dilution or fluorescence activated cell sorting.
(§3) The clonal stable cell lines were maintained under constant 200 μg/mL hygromycin B selection while being passaged for use in the degradation assays. […] The fluorescence intensity of the IKZF1/2/3-mNeonGreen (FITC channel) and mScarlet (PE channel) reporters were routinely analyzed by flow cytometry to confirm consistent expression levels between experiments.
(§4) The IKZF1/IKZF2/IKZF3 degradation assays were carried out by harvesting the HEK 293T reporter cell lines and resuspending the cells in media formulated for reduced background fluorescence (FluoroBrite; Thermo Fisher). The respective cell lines were seeded at a density of 4000 cells/well into black-walled 384-well optical grade assay tissue culture plates. The cells were incubated overnight at 37° C. to allow for attachment to the assay plate. Dilutions of the compounds were prepared in DMSO from 10 mM compound stocks. The assay plates were treated with appropriate concentrations of the compounds by dispensing the DMSO dilutions in quadruplicate wells with an upper limit of 0.5% final DMSO.
(§5) After 24 hour incubation with the compounds, the assay plates were imaged on an ImageXpress Pico microscopy system (cells maintained at 37° C. during imaging) to obtain the fluorescent readouts. The assay plates were imaged in the FITC and Tetramethylrhodamine (TRITC) channels to obtain the mNeonGreen fluorescence intensity (reporter degradation data) and mScarlet fluorescence intensity (for cell segmentation). 293T-IKZF1 and 293T-IKZF3 reporter cell lines were imaged with exposures of 500 milliseconds (ms) for both FITC and TRITC channels, while the 293T-IKZF2 reporter cell line was imaged with exposures of 1000 ms for FITC and 1250 ms for TRITC. The resulting data was analyzed with Cell Reporter Xpress software using the 2-channel cell scoring analysis with a “percent positive” readout. The TRITC channel was selected for the “nuclei” segmentation with a threshold of 20 while the FITC channel was selected for the “Marker 1” segmentation and a threshold of 100 for the IKZF and IKZF3 reporter lines. […] The minimum segmentation width was set to 6 micrometers and the maximum segmentation width was set to 15 micrometers for all cell lines. The DC50 calculations were determined by regression to best fit four-parameter logistic curves using GraphPad Prism.

IKZF2 (Helios) = IKZF2 (Helios) (Homo sapiens (Human), UniProt Q96SW2+Q9UKS7); assay: IKZF2 reporter degradation assay (HEK 293T IKZF2-mNeonGreen reporter cell line); format: cell-based; settings: 24 hour incubation; for inhibition at 1 µM: HEK-293T, 24 h
IKZF2 (Helios), sequence (Q9UKS7 whole entry): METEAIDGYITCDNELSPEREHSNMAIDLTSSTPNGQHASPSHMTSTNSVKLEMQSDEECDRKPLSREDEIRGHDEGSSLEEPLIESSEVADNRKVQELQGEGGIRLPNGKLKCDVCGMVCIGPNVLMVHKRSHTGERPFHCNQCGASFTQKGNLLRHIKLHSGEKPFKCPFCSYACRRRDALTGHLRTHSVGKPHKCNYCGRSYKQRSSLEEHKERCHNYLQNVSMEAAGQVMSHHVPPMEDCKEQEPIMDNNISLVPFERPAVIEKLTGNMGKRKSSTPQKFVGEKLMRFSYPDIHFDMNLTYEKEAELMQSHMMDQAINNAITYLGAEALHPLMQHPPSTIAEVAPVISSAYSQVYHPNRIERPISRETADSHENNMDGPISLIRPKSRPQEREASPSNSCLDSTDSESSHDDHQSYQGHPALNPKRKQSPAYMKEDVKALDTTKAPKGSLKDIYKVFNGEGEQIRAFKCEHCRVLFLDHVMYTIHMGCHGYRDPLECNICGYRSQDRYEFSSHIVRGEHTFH
IKZF2 (Helios), sequence (Q96SW2 whole entry): as the sequence (Q96SW2 whole entry, the tested form may be a part) above
IKZF2 (Helios), sequence (Q16531 whole entry partner): as the sequence (Q16531 whole entry partner, the tested form may be a part) above
From the text: as §1, §2, §3, §4, §5

IKZF1 (Ikaros) = IKZF1 (Ikaros) (Homo sapiens (Human), UniProt Q13422+Q96SW2); assay: IKZF1 reporter degradation assay (HEK 293T IKZF1-mNeonGreen reporter cell line); format: cell-based; settings: HEK 293T reporter cells, 24 hour incubation
IKZF1 (Ikaros), sequence (Q13422 whole entry): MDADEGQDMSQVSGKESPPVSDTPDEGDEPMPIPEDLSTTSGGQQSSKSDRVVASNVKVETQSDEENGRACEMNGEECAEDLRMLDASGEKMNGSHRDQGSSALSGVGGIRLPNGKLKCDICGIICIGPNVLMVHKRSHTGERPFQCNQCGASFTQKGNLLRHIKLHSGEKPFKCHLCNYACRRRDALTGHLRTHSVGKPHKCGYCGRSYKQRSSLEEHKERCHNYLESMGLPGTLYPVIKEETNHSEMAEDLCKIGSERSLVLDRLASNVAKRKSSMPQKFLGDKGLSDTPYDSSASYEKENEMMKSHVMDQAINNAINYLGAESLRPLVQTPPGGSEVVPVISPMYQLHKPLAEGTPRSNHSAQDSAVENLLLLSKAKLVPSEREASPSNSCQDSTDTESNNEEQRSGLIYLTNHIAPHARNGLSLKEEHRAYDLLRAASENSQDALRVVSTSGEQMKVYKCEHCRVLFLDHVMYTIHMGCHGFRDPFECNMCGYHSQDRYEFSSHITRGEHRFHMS
IKZF1 (Ikaros), sequence (Q96SW2 whole entry): as the sequence (Q96SW2 whole entry, the tested form may be a part) above
IKZF1 (Ikaros), sequence (Q16531 whole entry partner): as the sequence (Q16531 whole entry partner, the tested form may be a part) above
From the text: as §1, §2, §3, §4, §5

[1] = target: human E3 ligase component cereblon (CRBN) (Homo sapiens (Human), UniProt Q96SW2); assay: Cereblon (CRBN) target engagement, NanoBRET TE Intracellular E3 Ligase Assay in transfected HEK-293T cells
human E3 ligase component cereblon (CRBN), sequence (Q96SW2 whole entry): as the sequence (Q96SW2 whole entry, the tested form may be a part) above
human E3 ligase component cereblon (CRBN), sequence (Q16531 whole entry partner): as the sequence (Q16531 whole entry partner, the tested form may be a part) above
Procedure: HEK-293T cells were harvested ca. 75% confluent with trypsin and plated (500,000 cells/well) in a 6-well tissue culture plate in 2 mL of Dulbecco's Modified Eagle Medium (DMEM)^+10% Fetal Bovine Serum (FBS) and incubated overnight at 37° C.
The NanoLue-CRBN fusion vector (Nluc-CRBN; Promega) contains the coding region of human E3 ligase component cereblon (CRBN) fused to the C-terminus of the NanoLuc luciferase coding region. A mixture of 10 ng Nluc-CRBN and 990 ng DDB1 Expression Vector (Promega) was added to 125 μL Opti-Minimum Essential Medium (Opti-MEM™; Thermo Fisher) along with 2 μL P3000 reagent (Thermo Fisher) in a 1.5 mL epppendorf tube. This solution was added to Lipofectamine 3000 transfection reagent (5 μL; Thermo Fisher) in Opti-MEM (125 μL), mixed well, and incubated for 15 minutes at room temperature. The transfection mixture was added dropwise to cells and incubated overnight at 37° C., 5% CO2. Following transfection, cells were washed once with PBS, and trypsin (250 μL) was added and incubated 30-45 see to dislodge cells. Complete media (2 mL) was added to resuspend cells to form a single cell suspension. Cells were centrifuged at 320×g for 5 min at room temperature, the supernatant was removed, and the cell pellet resuspended in Opti-MEM (3 mL; wash step repeated ×2). After final resuspension in 5 mL Opti-MEM, cells were counted and resuspended at 200,000 cells/mL in Opti-MEM.
Cereblon target engagement was monitored by Bioluminescence Resonance Energy Transfer (BRET) in transfected HEK-293T cells using the NanoBRET TE Intracellular E3 Ligase Assay (Promega). Briefly, 384-well plates (white opaque plates, Corning 3574, low binding surface) were seeded with transfected HEK-293T cells (38 μl/well). 2 μL of 10 μM CRBN tracer (diluted 1:5 in Tracer Dilution Buffer) was added to each well. Plates were centrifuged at 320×g for 1 min at room temperature. […] Plates were shaken for 2 minutes on a microplate shaker to mix compounds. Plates were centrifuged at 320×g for 1 min at room temperature, and subsequently incubated for 2 hours at 37° C.
After incubation, plates were allowed to cool to room temperature for 15 minutes. 20 μL of 3X Complete NanoBRET™ Nano-Glo® Substrate plus Inhibitor Solution (Promega, 1:166 Substrate and 1:500 dilution of Extracellular NanoLuc® Inhibitor diluted in Opti-MEM) were added to each well, Plates were incubated with shaking at room temperature for 3 minutes covered with foil. Plates were read on a CLARIOstar microplate reader (BMG LabTech), measuring at 450 nm (donor emission) and 610 nm (acceptor emission). The IC50 values were determined by regression to best fit four-parameter logistic curves using GraphPad Prism.

[2] = Table 3, HEK 293T reporter cells
[3] = second (untitled) table after Table 3
[4] = Table 3, 2 hours at 37° C., read-out: CRBN Binding EC50
[5] = second (untitled) table after Table 3, read-out: CRBN Binding EC50

GSPT1, sequence (P15170 whole entry): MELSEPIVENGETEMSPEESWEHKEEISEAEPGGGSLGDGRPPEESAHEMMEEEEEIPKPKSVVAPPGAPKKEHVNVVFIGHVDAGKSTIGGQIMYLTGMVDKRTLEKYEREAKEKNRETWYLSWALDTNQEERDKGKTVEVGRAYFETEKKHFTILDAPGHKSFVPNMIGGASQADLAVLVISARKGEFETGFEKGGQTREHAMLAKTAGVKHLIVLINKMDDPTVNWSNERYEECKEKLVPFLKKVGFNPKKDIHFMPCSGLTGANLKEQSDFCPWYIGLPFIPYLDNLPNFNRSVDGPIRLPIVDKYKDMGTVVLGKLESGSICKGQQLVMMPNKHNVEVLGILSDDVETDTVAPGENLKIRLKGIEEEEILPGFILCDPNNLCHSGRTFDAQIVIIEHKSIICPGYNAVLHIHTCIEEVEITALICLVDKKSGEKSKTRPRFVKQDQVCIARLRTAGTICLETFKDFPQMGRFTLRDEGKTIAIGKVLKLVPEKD
GSPT1, sequence (Q96SW2 whole entry): as the sequence (Q96SW2 whole entry, the tested form may be a part) above
GSPT1, sequence (Q16531 whole entry partner): as the sequence (Q16531 whole entry partner, the tested form may be a part) above

SMILES | inhibition at 1 µM (IKZF2 (Helios); [2]) | inhibition at 1 µM (IKZF2 (Helios); [3]) | EC50 [1, 4] | EC50 [1, 5] | also measured
N#CC1(C2CN([C@H]3CCCC[C@@H]3Oc3ccc4c(c3)CN(C3CCC(=O)NC3=O)C4=O)C2)CCC1 (stereo partly drawn) [Compound 23, 1-(1-((1S,2S)-2-((2-(2,6-dioxopiperidin-3-yl)-1-oxoisoindolin-5-yl)oxy)cyclohexyl)azetidin-3-yl)cyclobutane-1-carbonitrile] | 87.4% | 87.4% |  |  | DC50 (GSPT1): > 30 µM; DC50 (IKZF3 (Aiolos)): > 30 µM; DC50 (IKZF2 (Helios); HEK 293T reporter cells): 0.003 µM; DC50 (IKZF1 (Ikaros)): > 30 µM
COC1CCC(C2CN([C@H]3CCC[C@@H]3Oc3ccc4c(c3)CN(C3CCC(=O)NC3=O)C4=O)C2)CC1 (stereo partly drawn) [Compound 10, 3-(5-(((1S,2S)-2-(3-((trans)-4-methoxycyclohexyl)azetidin-1-yl)cyclopentyl)oxy)-1-oxoisoindolin-2-yl)piperidine-2,6-dione] |  |  |  |  | IKZF2% Degradation @ 1 μM (IKZF2 (Helios); [2]): 80.8%; IKZF2% Degradation @ 1 μM (IKZF2 (Helios); [3]): 80.8%
COC1CCC(C2CN([C@H]3CCCC[C@@H]3Oc3ccc4c(c3)CN(C3CCC(=O)NC3=O)C4=O)C2)CC1 (stereo partly drawn) [Compound 7, 3-(5-(((1S,2S)-2-(3-((cis)-4-methoxycyclohexyl)azetidin-1-yl)cyclohexyl)oxy)-1-oxoisoindolin-2-yl)piperidine-2,6-dione] | 80.1% |  |  |  | IKZF2% Degradation @ 1 μM (IKZF2 (Helios); [3]): 80.1%
COC1CCC(C2CN([C@H]3CCC[C@@H]3Oc3ccc4c(c3)CN(C3CCC(=O)NC3=O)C4=O)C2)CC1 (stereo partly drawn) [Compound 9, 3-(5-(((1S,2S)-2-(3-((cis)-4-methoxycyclohexyl)azetidin-1-yl)cyclopentyl)oxy)-1-oxoisoindolin-2-yl)piperidine-2,6-dione] | 77.7% | 77.7% |  |  | 
COC1CCC(C2CN([C@H]3CCC[C@@H]3Oc3ccc4c(c3)CN(C35CC(C3)C(=O)NC5=O)C4=O)C2)CC1 (stereo partly drawn) [Compound 12, 1-(5-(((1S,2S)-2-(3-((cis)-4-methoxycyclohexyl)azetidin-1-yl)cyclopentyl)oxy)-1-oxoisoindolin-2-yl)-3-azabicyclo[3.1.1]heptane-2,4-dione] |  |  | > 10 µM | > 10 µM | 
COC1CCC(C2CN([C@H]3CCCC[C@@H]3Oc3ccc4c(c3)CN(C3CCC(=O)NC3=O)C4=O)C2)CC1 (stereo partly drawn) [Compound 8, 3-(5-(((1S,2S)-2-(3-((trans)-4-methoxycyclohexyl)azetidin-1-yl)cyclohexyl)oxy)-1-oxoisoindolin-2-yl)piperidine-2,6-dione] |  | 80.1% |  |  | IKZF2% Degradation @ 1 μM (IKZF2 (Helios); [2]): 80.1%

Now from value to compound, other results behind:

inhibition at 1 µM (IKZF2 (Helios); [2]) | inhibition at 1 µM (IKZF2 (Helios); [3]) | EC50 [1, 4] | EC50 [1, 5] | SMILES | also measured
 |  | > 10 µM | > 10 µM | O=C1NC(=O)C2(N3Cc4cc(O[C@H]5CCC[C@@H]5N5CC(C6CCC(F)(F)CC6)C5)ccc4C3=O)CC1C2 [Compound 14, 1-(5-(((1S,2S)-2-(3-(4,4-difluorocyclohexyl)azetidin-1-yl)cyclopentyl)oxy)-1-oxoisoindolin-2-yl)-3-azabicyclo[3.1.1]heptane-2,4-dione] | 
 |  | > 10 µM | > 10 µM | COC1CCC(C2CN([C@H]3CCCC[C@@H]3Oc3ccc4c(c3)CN(C35CC(C3)C(=O)NC5=O)C4=O)C2)CC1 (stereo partly drawn) [Compound 11, 1-(5-(((1S,2S)-2-(3-((cis)-4-methoxycyclohexyl)azetidin-1-yl)cyclohexyl)oxy)-1-oxoisoindolin-2-yl)-3-azabicyclo[3.1.1]heptane-2,4-dione] | 
 |  | 6.21 µM | 6.21 µM | O=C1NC(=O)C2(N3Cc4cc(O[C@H]5CCCC[C@@H]5N5CC(C6CCC(F)(F)CC6)C5)ccc4C3=O)CC1C2 [Compound 15, 1-(5-(((1S,2S)-2-(3-(4,4-difluorocyclohexyl)azetidin-1-yl)cyclohexyl)oxy)-1-oxoisoindolin-2-yl)-3-azabicyclo[3.1.1]heptane-2,4-dione] | 
